From patent publication US20160010047A1, “DEVICE AND METHOD FOR WETTING A SAMPLE WITH AN AEROSOL” (Helmholtz Zentrum Muenchen Deutsches Forschungszentrum fuer …, priority 2013, published 2016)

System: human pulmonary cell line (A549) stimulated with TNFα; interleukin 8 (IL-8)
Test: Anti-inflammatory effect on TNFα-stimulated A549 cells (IL-8 as inflammatory marker), substance applied as aerosol at the ALI with device 2 or pipetted on submerged cells
Type: cell-based
Conditions: FIG. 4
Text: On the other hand, if polarized lung epithelial cells (e.g. primary cells) are used, significant differences in the biological response can be expected. After stimulation of A549 cells with the tumor necrosis factor α (TNF α), the interleukin 8 (IL-8) as inflammatory marker is induced approximately 7-fold (corresponds to value 1 in FIG. 4), relative to the basal value (non-stimulated cells). […] This exemplifies that with device 2, aerosolized active substances can be applied accurately dosed and without loss of bioactivity (e.g. due to shear stresses during nebulization) on human pulmonary cells at the ALI. Thus, device 2 is suitable for the systematic screening of substances with respect to their potential as an active ingredient in aerosolized form.
This device 2 is thereby validated as a tool for quantitative drug screening for aerosolized liquid substances.

CC(C)C[C@H](NC(=O)[C@H](Cc1ccccc1)NC(=O)c1cnccn1)B(O)O [Bortezomib]
dose-response curve after administration in aerosolized form with device 2 (ALI) compared with reference curve (substance pipetted on submerged cells) (A549 cells at the ALI, TNFα-stimulated): identical to the reference curve
reduction of the TNFα-induced inflammatory effect (IL-8 induction), factor (A549 cells, non-polarized, stimulated with TNFα, dose-dependent): ≤ 2
